One series deals with H460. Briefly: In vitro proliferation of NSCLC human tumor line H460, without or with specific AKR1C3 inhibitor. The format is cell-based. The following applies: H460 cells. How it is done: The cytotoxicity analysis of the human tumor cell lines in vitro was used.
IC50 (half maximal inhibitory concentration) values were in nanomoles and were obtained by the following. Cells were exposed in the compounds with different concentration for 2 hours. The compounds were washed off, and fresh medium was added into plates. A growth rate and a cell-survival rate were obtained by cell staining and compared with a control group treated with the medium only.
The compound was dissolved in 100% DMSO at 200 times of the desired final test concentration. When the drug was added, the compound was further diluted at 4 times of the desired final test concentration by the complete medium. 50 μL aliquots of the compound with specific concentration were added to the microwells contained 150 μL of medium, and then the final drug concentration was obtained. […] After the incubation was finished, the Alamar Blue was used to analyze and quantify the alive cells.
Before 2 h of the compound was prepared, the compound with the inhibitor was added to the cell culture. The inhibitor was […]

In the next series the target is P-glycoprotein (P-GP) (Homo sapiens, UniProt P08183). Briefly: in vitro. The following applies: dog, MDCK-MDR1. How it is done: The preparation of the […] for the penetration test: • (1) MDCKII-MDR1 cells were cultured in the cell culture bottle. The conditions of the incubator were 37° C., 5% of CO2, and 95% of the relative humidity. When the cell growth confluence was up to 70-90%, the cells were inoculated to the transwell. • (2) Before the cell inoculation, 50 μL of the culture medium was respectively added to every well of the upper compartment of the transwell, and […] of the culture medium was added to the lower compartment. The transwell was incubated in the incubator under 37° C. and 5% CO2. […] The cell suspension was transferred to the upper compartment of the 96-well transwell, wherein each upper compartment contains 50 μL of the cell suspension. The final inoculum density was 5.45×10^5 cells/cm^2. • (5) The culture medium was replaced after inoculating for 48 h. After culturing for 4-8 days, the medium was changed every other day. • (6) The process of replacing the culture medium was as the follow. The upper compartment and the lower compartment were separated. The medium in the lower compartment was discarded, and then the medium in the upper compartment was discarded. Finally, 75 μL of fresh medium was added to each upper compartment and […] of fresh medium was added to the lower compartment.
Evaluation of the Cell Monolayer Integrity • (1) The MDCKII-MER1 cells should be totally confluent and complete the differentiation after culturing for 4-8 days. The MDCKII-MER1 cells can be used for the penetration test at this time. • (2) Millipore was used to measure the resistance of the cell monolayer, and the resistance of every well was recorded. • (3) After the measuring, the transwell was put back to the incubator. • (4) The calculation of the resistance: measured resistance (ohms)×area of the membrane=TEER value (ohm-cm^2). If TERR value was <42 ohm-cm^2, the well would not be used to the penetration test.
Penetration Test of the Drug • (1) The transwell of the MDCKII-MER1 cells was taken out from the incubator. The cell monolayer was rinsed two times by the buffer solution and incubated at 37° C. for 30 min. • (2) The transport rate of the compound from the top to the bottom was tested. […] 200 μL of the acetonitrile containing the internal standard (100 nM Alprazolam, 200 nM Labetalol, 200 nM caffeine and 2 μM Ketoprofen) was added to each sample tube. After the sample tubes were vortexed for 10 min, the sample tubes were centrifuged at 3220 g for 30 min. 100 μL of the supernatant was taken to be diluted with the same volume of the water, and the LC-MS/MS analysis was executed. Each sample was adopted to the three parallel incubation. • (8) After the cell monolayer was incubated for 2 h, the integrity of the cell monolayer was evaluated by the migration assay using the fluorescence yellow, the fluorescence yellow storage solution was diluted by the buffer solution, and the final concentration was 100 μM/L. 100 μL of the fluorescence yellow solution was added to each well of the upper compartment, and 300 μL of the buffer was added to each well of the lower compartment. After the transwell was incubated at 37° C. for 30 min, 80 µL of the solution from each well of the upper compartment and the lower compartment was respectively transferred to a new 96-well plate. ELISA (Enzyme-linked Immunosorbent Assay) reader was used to perform the fluorimetry with the excitation wavelength of 480 nm and the emission wavelength of 530 nm.
The peak area was calculated by the result of the ion chromatography. The permeability coefficient (Papp, unit: cm/s×10^−6) of the compound was calculated by the formula: […]

[1] abbreviates: Homo sapiens, NCI-H460, 2 h exposure, washed, further 70 h, Alamar Blue, read-out: Inhibitory effect of the proliferation of the cancer cells IC50.
The mark [2] stands for this setting: in the presence of specific AKR1C3 inhibitor (TH3021, 3 μmol concentration), read-out: Inhibitory effect of the proliferation of the cancer cells IC50 of +TH3021.

Like-named read-outs stand apart in the source and are kept apart here.

Chain of P-glycoprotein (P-GP) (P08183 whole entry): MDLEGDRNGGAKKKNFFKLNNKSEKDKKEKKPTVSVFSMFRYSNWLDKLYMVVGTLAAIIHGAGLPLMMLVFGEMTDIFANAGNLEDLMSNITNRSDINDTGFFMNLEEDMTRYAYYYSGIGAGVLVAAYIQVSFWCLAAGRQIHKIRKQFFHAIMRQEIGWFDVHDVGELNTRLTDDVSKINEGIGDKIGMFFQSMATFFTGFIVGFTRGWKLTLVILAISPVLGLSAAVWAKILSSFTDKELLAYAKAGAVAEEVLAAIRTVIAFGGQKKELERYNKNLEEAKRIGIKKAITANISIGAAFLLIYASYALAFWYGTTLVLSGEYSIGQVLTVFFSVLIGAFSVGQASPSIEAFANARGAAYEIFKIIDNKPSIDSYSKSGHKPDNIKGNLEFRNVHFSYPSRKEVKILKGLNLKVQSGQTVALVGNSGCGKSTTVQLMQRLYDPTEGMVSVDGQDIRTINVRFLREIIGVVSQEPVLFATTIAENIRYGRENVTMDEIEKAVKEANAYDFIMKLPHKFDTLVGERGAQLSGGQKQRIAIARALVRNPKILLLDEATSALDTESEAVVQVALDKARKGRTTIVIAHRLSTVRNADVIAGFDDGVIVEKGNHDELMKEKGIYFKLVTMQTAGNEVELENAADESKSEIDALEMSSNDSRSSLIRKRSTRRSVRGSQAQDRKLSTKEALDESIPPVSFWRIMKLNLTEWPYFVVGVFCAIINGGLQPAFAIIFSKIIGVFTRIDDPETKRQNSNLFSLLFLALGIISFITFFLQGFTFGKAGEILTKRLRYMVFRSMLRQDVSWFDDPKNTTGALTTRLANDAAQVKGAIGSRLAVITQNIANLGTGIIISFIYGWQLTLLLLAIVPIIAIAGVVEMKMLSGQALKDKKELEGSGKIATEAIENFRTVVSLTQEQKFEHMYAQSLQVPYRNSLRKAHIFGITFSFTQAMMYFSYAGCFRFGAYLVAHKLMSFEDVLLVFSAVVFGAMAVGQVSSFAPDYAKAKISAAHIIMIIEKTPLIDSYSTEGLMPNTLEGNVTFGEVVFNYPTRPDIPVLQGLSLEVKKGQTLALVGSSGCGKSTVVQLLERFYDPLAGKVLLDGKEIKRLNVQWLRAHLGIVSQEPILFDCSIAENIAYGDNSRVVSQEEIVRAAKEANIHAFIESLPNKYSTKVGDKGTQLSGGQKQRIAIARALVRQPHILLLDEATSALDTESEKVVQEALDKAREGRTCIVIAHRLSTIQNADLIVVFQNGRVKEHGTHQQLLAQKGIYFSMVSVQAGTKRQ

As to `O=[N+]([O-])c1ccc(C(OP(=O)(N2CC2)N2CC2)C(F)(F)F)cc1Oc1ccc(-c2ccc(F)cc2)c(F)c1` (stereo not shown) [Compound 15], the IC50 in the series with H460 (setting [1]) turned out to be 0.00678 µM. For the same compound, the efflux ratio at 2 h on P-glycoprotein (P-GP) is 1.36.

Take `Cc1ccc(NC(=O)c2ccc(CN3CCN(C)CC3)cc2)cc1Nc1nccc(-c2cccnc2)n1` [Imatinib, reference compound]: on P-glycoprotein (P-GP), the efflux ratio at 2 h worked out at 18.1.

On to `O=[N+]([O-])c1ccc(C(OP(=O)(N2CC2)N2CC2)C(F)(F)F)cc1Oc1ccc(-c2ccc(F)cc2)nc1` (stereo not shown) [Compound 17], for which the figures for the IC50 with H460 (setting [2]) and with H460 (setting [1]) were above 10 µM and 0.0355 µM, respectively.

For the compound `O=[N+]([O-])c1ccc(COP(=O)(N2CC2)N2CC2)cc1Oc1ccc(Cl)nc1` [Compound 9], the figures for the IC50 with H460 (setting [2]) and with H460 (setting [1]) were 0.0561 µM and below 0.0015 µM, respectively.

In the case of `Cc1cc(F)ccc1-c1ccc(Oc2cc(COP(=O)(N3CC3)N3CC3)ccc2[N+](=O)[O-])cc1F` [Compound 5], the IC50 in the series on H460 (setting [2]) was found to be 0.00504 µM; in the series on H460 (setting [1]), 0.00059 µM. Further, the efflux ratio at 2 h at P-glycoprotein (P-GP) was 1.69.

In the case of `O=[N+]([O-])c1ccc(COP(=O)(N2CC2)N2CC2)cc1Oc1ccc(-c2ccc(F)cn2)c(F)c1` [Compound 11], the IC50 in the series with H460 (setting [2]) amounted to 0.0922 µM; with H460 (setting [1]) it was 0.000211 µM.

Regarding `O=[N+]([O-])c1ccc(C(OP(=O)(N2CC2)N2CC2)C(F)(F)F)cc1Oc1cccc(-c2ccc(F)cc2)c1` (stereo not shown) [Compound 13], the IC50 in the series on H460 (setting [2]) was 1.89 µM; in the series on H460 (setting [1]), 0.03 µM.

Take `O=[N+]([O-])c1ccc(C(OP(=O)(N2CC2)N2CC2)C(F)(F)F)cc1Oc1ccc(-c2ccc(F)cc2F)cc1` (stereo not shown) [Compound 14]: the figures for the IC50 with H460 (setting [2]) and with H460 (setting [1]) were above 1 µM and 0.0114 µM, respectively. The efflux ratio at 2 h at P-glycoprotein (P-GP) came to 1.26.

As to `O=[N+]([O-])c1ccc(C(OP(=O)(N2CC2)N2CC2)C(F)(F)F)cc1Oc1ccc(-c2ccc(F)cc2F)c(F)c1` (stereo not shown) [Compound 16], the results for the IC50 with H460 (setting [2]) and in the series with H460 (setting [1]) were above 0.5 µM and 0.00726 µM, respectively. The efflux ratio at 2 h on P-glycoprotein (P-GP) amounted to 1.96.

As for `O=[N+]([O-])c1cc(F)c(COP(=O)(N2CC2)N2CC2)cc1Oc1ccc(-c2ccc(F)cc2)cc1` [Compound 3], the IC50 in the series on H460 (setting [2]) was 0.0478 µM; in the series on H460 (setting [1]) it was 0.00184 µM. Moreover, the efflux ratio at 2 h at P-glycoprotein (P-GP) was determined as 1.2.

For the compound `COc1cc2nc(N3CCN(C(=O)c4ccco4)CC3)nc(N)c2cc1OC` [Prazosin, reference compound], the efflux ratio at 2 h at P-glycoprotein (P-GP) is 2.87.

As to `O=[N+]([O-])c1ccc(C(OP(=O)(N2CC2)N2CC2)C(F)(F)F)cc1Oc1ccc(-c2ccc(C(F)(F)F)cc2)nc1` (stereo not shown) [Compound 18], the IC50 with H460 (setting [2]) was above 10 µM; with H460 (setting [1]) it was 0.313 µM.

Regarding `O=[N+]([O-])c1ccc(COP(=O)(N2CC2)N2CC2)cc1Oc1ccc(-c2ccc(F)cc2F)c(F)c1` [Compound 4], the values for the IC50 in the series with H460 (setting [2]) and in the series on H460 (setting [1]) were 0.0163 µM and 0.00067 µM, respectively. Also, on P-glycoprotein (P-GP), the efflux ratio at 2 h amounted to 0.87.

`O=[N+]([O-])c1ccc(COP(=O)(N2CC2)N2CC2)cc1Oc1ccc(-c2ccc(F)cc2)nc1` [Compound 7]: the IC50 in the series on H460 (setting [2]) came to 0.0197 µM; in the series with H460 (setting [1]), 0.00071 µM. Besides, the efflux ratio at 2 h at P-glycoprotein (P-GP) came out at 1.54.

`O=[N+]([O-])c1ccc(COP(=O)(N2CC2)N2CC2)cc1Oc1ccc(-c2ccc(F)cc2F)nc1` [Compound 12]: the IC50 was below 0.0015 µM in the series with H460 (2 h exposure, washed, further 70 h, Alamar Blue, read-out: Inhibitory effect of the proliferation of the cancer cells IC50) and 0.0114 µM with H460 (setting [2]).

With `O=[N+]([O-])c1ccc(COP(=O)(N2CC2)N2CC2)cc1Oc1ccc(-c2ccc(F)cc2)c(F)c1` [Compound 1], the IC50 was 0.04 µM in the series with H460 (setting [2]) and 0.00087 µM in the series on H460 (setting [1]). Also, at P-glycoprotein (P-GP), the efflux ratio at 2 h stood at 1.

As for `O=[N+]([O-])c1ccc(COP(=O)(N2CC2)N2CC2)cc1Oc1ccc(-c2ccc(F)cc2)cc1` [Compound 2], the IC50 in the series on H460 (setting [2]) came out at 0.105 µM; with H460 (setting [1]) it was 0.00189 µM. Besides, at P-glycoprotein (P-GP), the efflux ratio at 2 h came out at 1.53.

Regarding `O=[N+]([O-])c1ccc(COP(=O)(N2CC2)N2CC2)cc1Oc1ccc(-c2ccc(F)cn2)cc1` [Compound 10], the values for the IC50 in the series with H460 (setting [2]) and in the series on H460 (setting [1]) were 0.0296 µM and 0.00115 µM, respectively. Further, the efflux ratio at 2 h on P-glycoprotein (P-GP) worked out at 1.43.

Regarding `O=[N+]([O-])c1ccc(COP(=O)(N2CC2)N2CC2)cc1Oc1ccc(C(F)(F)F)nc1` [Compound 6], the results for the IC50 with H460 (setting [2]) and in the series on H460 (setting [1]) were 0.0382 µM and 0.00046 µM, respectively.

As to `O=[N+]([O-])c1ccc(COP(=O)(N2CC2)N2CC2)cc1Oc1ccc(-c2ccc(F)cc2F)nc1` [Compound 8], the figures for the IC50 with H460 (setting [2]) and in the series with H460 (setting [1]) were 0.0268 µM and below 0.0015 µM, respectively.

Consider `O=[N+]([O-])c1ccc(C(OP(=O)(N2CC2)N2CC2)C(F)(F)F)cc1Oc1ccc(-c2ccc(F)cn2)cc1` (stereo not shown) [Compound 19], for which the IC50 with H460 (setting [2]) was above 10 µM; in the series on H460 (setting [1]), 0.0468 µM.

The term efflux ratio denotes the permeability from basolateral to apical divided by that in the opposite direction, in the common usage.

These data come from US20220387345A1, “ANTI-CANCER COMPOUNDS ACTING AS NON-PGP SUBSTRATE” (ASCENTAWITS PHARMACEUTICALS, LTD., priority 2019, published 2022).
